Data as given in US11040981B2, “Pyrrolotriazine compounds and methods of inhibiting TAM kinases” (Syros Pharmaceuticals, Inc., priority 2017, dated 2021).

How the values were obtained:
MERTK = target: T1, MERTK (Homo sapiens, UniProt Q12866); test: TR-FRET kinase activity assay, MERTK; assay type: biochemical; details: for IC50: TR-FRET activity assay, ATP at Km, 60 minutes, read-out: Mer IC50
T1 sequence (Q12866 21-999): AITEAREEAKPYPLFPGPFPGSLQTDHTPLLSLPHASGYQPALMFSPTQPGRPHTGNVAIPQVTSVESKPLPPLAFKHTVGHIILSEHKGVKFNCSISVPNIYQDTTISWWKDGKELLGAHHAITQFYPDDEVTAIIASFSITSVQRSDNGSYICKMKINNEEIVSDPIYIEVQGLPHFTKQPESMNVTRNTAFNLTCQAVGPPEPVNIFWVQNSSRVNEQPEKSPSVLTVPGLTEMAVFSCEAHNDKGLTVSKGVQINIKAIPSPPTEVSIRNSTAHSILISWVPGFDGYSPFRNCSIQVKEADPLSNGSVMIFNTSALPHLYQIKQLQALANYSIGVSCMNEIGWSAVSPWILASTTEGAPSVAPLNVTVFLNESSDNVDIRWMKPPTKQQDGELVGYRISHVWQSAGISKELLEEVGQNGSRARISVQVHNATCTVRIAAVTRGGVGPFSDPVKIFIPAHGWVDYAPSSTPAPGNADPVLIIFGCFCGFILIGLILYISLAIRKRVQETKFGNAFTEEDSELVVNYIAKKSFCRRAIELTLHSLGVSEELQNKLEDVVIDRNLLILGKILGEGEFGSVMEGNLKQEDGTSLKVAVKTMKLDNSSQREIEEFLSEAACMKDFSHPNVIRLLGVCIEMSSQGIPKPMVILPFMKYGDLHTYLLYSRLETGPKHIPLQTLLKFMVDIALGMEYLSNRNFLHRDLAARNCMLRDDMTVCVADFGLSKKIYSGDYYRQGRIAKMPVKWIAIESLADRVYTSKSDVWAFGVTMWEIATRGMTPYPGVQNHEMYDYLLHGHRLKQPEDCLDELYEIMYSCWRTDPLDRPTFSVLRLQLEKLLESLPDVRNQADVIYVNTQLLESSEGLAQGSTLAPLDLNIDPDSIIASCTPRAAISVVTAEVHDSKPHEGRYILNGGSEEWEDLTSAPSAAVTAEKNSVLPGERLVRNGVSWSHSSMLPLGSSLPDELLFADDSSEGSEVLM
In short: (§1)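 Inhibition is measured as loss of phospho-peptide formation: kinase, fluorescent tyrosine peptide and compound are combined, ATP is added at Km, and the reaction proceeds 60 min at RT in pH 7.5 HEPES buffer. An EDTA stop and Eu-labelled phospho-specific antibody allow TR-FRET detection for IC50 fitting.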

TYRO3 = target: T2, TYRO3 (Homo sapiens, UniProt Q06418); test: TR-FRET kinase activity assay, TYRO3; assay type: biochemical; details: ATP at Km, 60 minutes
T2 sequence (Q06418 41-890): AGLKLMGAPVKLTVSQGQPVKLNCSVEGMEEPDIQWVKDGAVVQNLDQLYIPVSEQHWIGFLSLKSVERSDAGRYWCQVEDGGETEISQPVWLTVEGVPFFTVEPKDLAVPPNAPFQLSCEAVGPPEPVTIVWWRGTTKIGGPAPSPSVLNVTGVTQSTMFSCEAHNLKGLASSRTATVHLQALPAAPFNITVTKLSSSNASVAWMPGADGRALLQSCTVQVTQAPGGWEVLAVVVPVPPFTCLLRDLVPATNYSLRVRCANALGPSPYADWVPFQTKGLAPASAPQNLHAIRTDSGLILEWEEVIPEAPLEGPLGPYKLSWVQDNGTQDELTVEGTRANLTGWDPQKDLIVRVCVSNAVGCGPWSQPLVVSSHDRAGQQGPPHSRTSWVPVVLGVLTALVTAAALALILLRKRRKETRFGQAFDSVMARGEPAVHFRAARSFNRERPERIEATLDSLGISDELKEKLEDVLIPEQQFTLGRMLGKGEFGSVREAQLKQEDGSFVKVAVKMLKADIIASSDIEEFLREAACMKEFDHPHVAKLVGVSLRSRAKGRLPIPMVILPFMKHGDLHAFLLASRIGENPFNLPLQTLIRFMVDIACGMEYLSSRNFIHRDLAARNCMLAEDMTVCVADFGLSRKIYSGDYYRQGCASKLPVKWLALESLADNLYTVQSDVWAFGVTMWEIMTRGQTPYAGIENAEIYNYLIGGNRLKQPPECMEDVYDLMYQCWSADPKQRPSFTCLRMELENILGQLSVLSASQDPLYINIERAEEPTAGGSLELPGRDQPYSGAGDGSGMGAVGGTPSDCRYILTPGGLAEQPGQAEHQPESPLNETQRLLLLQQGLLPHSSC
In short: as §1

[1] = ratio calculated as FLT3 IC50/Mer IC50
[2] = ratio of Mer to FLT3: FLT3 IC50/Mer IC50

Compound	IC50 (MERTK) [nM]	FLT3/Mer ratio (FLT3 IC50/Mer IC50) (MERTK; [1])	IC50 (TYRO3) [nM]	FLT3/Mer ratio (FLT3 IC50/Mer IC50) (MERTK; [2])
COC[C@H](C)Nc1ncc2c(-c3cnn(C4COC4)c3)cc(-c3ccc(O)nc3)n2n1 [Compound 501]	≤ 100	++ (“++” represents a ratio of between 10 and 100)	≤ 100	
COC[C@H](C)Nc1ncc2c(-c3ccnc(N4CCOC5(COC5)C4)c3)cc([C@H]3CC[C@H](O)CC3)n2n1 [Compound 480]	≤ 100	+++ (“+++” represents a ratio of >100)	≤ 100	
COC[C@H](C)Nc1ncc2c(-c3ccnc(N4CCNCC4)c3)cc([C@H]3CC[C@H](O)CC3)n2n1 [Compound 434]	≤ 100	+++ (“+++” represents a ratio of >100)	≤ 100	
COC[C@H](C)Nc1ncc2c(-c3ccnc(N4CCN(C(=O)OC5COC5)CC4)c3)cc([C@H]3CC[C@H](O)CC3)n2n1 [Compound 504]	≤ 100	+++ (“+++” represents a ratio of >100)	≤ 100	
COC[C@H](C)Nc1ncc2c(C#CC(C)(C)C(=O)N3CCOCC3)cc([C@H]3CC[C@H](O)CC3)n2n1 [Compound 449]	≤ 100	+++ (“+++” represents a ratio of >100)	≤ 100	
COC[C@H](C)Nc1ncc2c(-c3cnn(C4COC4)c3)cc([C@H]3CC[C@@](C)(O)CC3)n2n1 (single isomer, unassigned) [Compound 453]	≤ 100	+++ (“+++” represents a ratio of >100)	≤ 100	
COC[C@H](C)Nc1ncc2c(-c3cnn(C4COC4)c3)cc([C@H]3CC[C@](C)(O)CC3)n2n1 (single isomer, unassigned) [Compound 452]	≤ 100	+++ (“+++” represents a ratio of >100)	≤ 100	
COC[C@H](C)Nc1ncc2c(-c3cnn(CC4CCO4)c3)cc([C@H]3CC[C@H](O)CC3)n2n1 (stereo partly drawn) [Compound 439]	≤ 100	+++ (“+++” represents a ratio of >100)	≤ 100	
CC[C@H](C)Nc1ncc2c(-c3ccc(CN4CCN(C)CC4)cc3)cc(C3CCC(C)(O)CC3)n2n1 (stereo in doubt) [Compound 131, (cis)-4-(2-((S)-sec-butylamino)-5-(4-((4-methylpiperazin-1-yl)methyl)phenyl)pyrrolo[2,1-f][1,2,4]triazin-7-yl)-1-methylcyclohexanol]	≤ 100		≤ 100	+++ (“+++” represents a ratio of >100)
COC[C@H](C)Nc1ncc2c(-c3ccnc(N4CCN(S(=O)(=O)C(F)(F)F)CC4)c3)cc([C@H]3CC[C@H](O)CC3)n2n1 [Compound 487]	≤ 100	+++ (“+++” represents a ratio of >100)	≤ 100	
C[C@@H](CC(F)(F)F)Nc1ncc2c([C@H]3CC[C@@H](C(=O)N4CCOCC4)CC3)cc([C@H]3CC[C@H](O)CC3)n2n1 [Compound 446]	≤ 100	+++ (“+++” represents a ratio of >100)	≤ 100	
COC[C@H](C)Nc1ncc2c(-c3ccnc(N4CCC5(CC4)COC5)c3)cc([C@H]3CC[C@H](O)CC3)n2n1 [Compound 427]	≤ 100	+++ (“+++” represents a ratio of >100)	≤ 100	
CC[C@H](C)Nc1ncc2c(C3=CCOCC3)cc([C@H]3CC[C@H](O)CC3)n2n1 [Compound 128]	≤ 100		≤ 100	++ (“++” represents a ratio of between 10 and 100)
COC[C@H](C)Nc1ncc2c(C3=C[C@@H]4CC[C@H](C3)N4)cc([C@H]3CC[C@H](O)CC3)n2n1 [Compound 461]	≤ 100	+++ (“+++” represents a ratio of >100)	≤ 100	
C[C@@H](COC(F)F)Nc1ncc2c(-c3cnn(CCC#N)c3)cc([C@H]3CC[C@H](O)CC3)n2n1 [Compound 437]	≤ 100	+++ (“+++” represents a ratio of >100)	≤ 100	
COC[C@H](C)Nc1ncc2c(-c3cnn(C[C@H]4CC(=O)N(C)C4)c3)cc([C@H]3CC[C@H](O)CC3)n2n1 [Compound 475]	≤ 100	+++ (“+++” represents a ratio of >100)	≤ 100	
COC[C@H](C)Nc1ncc2c(C3=C[C@@H]4CC[C@H](C3)N4C)cc([C@H]3CC[C@H](O)CC3)n2n1 [Compound 465]	≤ 100	+++ (“+++” represents a ratio of >100)	≤ 100	
C[C@@H](CC(F)F)Nc1ncc2c(-c3ccc(S(C)(=O)=O)nc3)cc([C@H]3CC[C@H](O)CC3)n2n1 [Compound 489]	≤ 100	+++ (“+++” represents a ratio of >100)	≤ 100	
COC[C@H](C)Nc1ncc2c(-c3csc(C(=O)N4CCOCC4)c3)cc([C@H]3CC[C@H](O)CC3)n2n1 [Compound 444]	≤ 100	+++ (“+++” represents a ratio of >100)	≤ 100	
COC[C@H](C)Nc1ncc2c(-c3cnn(C(C)(C)C(=O)N4CCN(C)CC4)c3)cc([C@H]3CC[C@H](O)CC3)n2n1 [Compound 466]	≤ 100	+++ (“+++” represents a ratio of >100)	≤ 100	
CCCCC[C@H](C)Nc1ncc2c([C@H]3CC[C@@H](C(=O)N4CCN(C)CC4)CC3)cc([C@H]3CC[C@H](O)CC3)n2n1 [Compound 127]	≤ 100		≤ 100	+++ (“+++” represents a ratio of >100)
COC[C@H](C)Nc1ncc2c(C3=C[C@H]4CC[C@@H](C3)N4C)cc([C@H]3CC[C@H](O)CC3)n2n1 [Compound 494]	≤ 100	+++ (“+++” represents a ratio of >100)	≤ 100	
COC[C@H](C)Nc1ncc2c(-c3cccc(N4C[C@H]5COC[C@H]5C4)c3)cc([C@H]3CC[C@H](O)CC3)n2n1 [Compound 464]	≤ 100	+++ (“+++” represents a ratio of >100)	≤ 100	
